# In patent publication US11213484B2, “Dipivefrin orally disintegrating tablet formulations” (priority 2019, dated 2022):
# Assays:
# [1] = well known in the art; cited from earlier work
# [2] = cited from earlier work
# [3] = Oral absorption (general statements); format: in vivo; settings: orally administered
# [4] = cited from earlier work; remark: listed apart in the source
absorption after oral administration [3],SMILES,absorption when taken orally [1],"dipivefrin converted into epinephrine ([2]; 0.5% solution instilled in human eyes, within 30 minutes) [%]",ocular penetration relative to epinephrine (times greater) ([2]; human eyes) [times],amount entering the rabbit eye relative to epinephrine [4]
–,CNC[C@H](O)c1ccc(O)c(O)c1 [epinephrine],not absorbed,–,–,–
well absorbed,"CNCC(O)c1ccc(OC(=O)C(C)(C)C)c(OC(=O)C(C)(C)C)c1 (centres unmarked) [Dipivefrin, 4-(1-hydroxy-2-(methylamino)ethyl)-1,2-phenylene bis(2,2-dimethylpropanoate)]",–,80,17,eight to ten times more
